Data taken from patent US20100226888A1, “Ethanol Enhances the Complete Replication of Hepatitis C Virus: the Role of Acetaldehyde” (priority 2009, published 2010).
Like-named read-outs stand apart in the source and are kept apart here.

Legend:
[1] = test system: Con1 subgenomic HCV replicon (genotype 1b); experiment: Con1 subgenomic replicon HCV RNA in SgPC2 cells (Northern blot); type: cell-based, hepatitis C virus; conditions: 24 h; for HCV RNA level / HCV replication in SgPC2 cells: 5 μM acetaldehyde, 5 μM acetate, 0.2% isopropyl alcohol, 2 mM acetone, 25 mM tert-butanol, 5 mM lactate; for potentiation of HCV RNA replication by ethanol, acetaldehyde, isopropyl alcohol, acetone, and acetate: 30 min pretreatment with 5 μM lovastatin, 5 μM fluvastatin, 5 μg/ml TOFA or 5 μg/ml cerulenin
From the text: (§1) The genotype 2a HCV constructs, pJFH1 (produces infectious virus particles), replicative-null pJFH1-GND, and subgenomic pSgJFH1-Luc (contains a luciferase reporter gene), are described elsewhere (23, 24). Subgenomic HCV replicons are bicistronic constructs that express only the nonstructural proteins of HCV under the control of encephalocarditis virus IRES; neomycin resistance or firefly luciferase gene is under the control of the HCV IRES (15, 22, 24). These replicons support HCV RNA replication but no virus is formed in cell culture. Huh7 cell clones (SgPC2 cells, Clone B) supporting continuous replication of subgenomic HCV replicon of genotype 1b (Con1 sequence) were also used (17, 22).
(§2) The in vitro transcription, and transfection of HCV RNA, and Huh7 human hepatoma cell culture were performed as previously described (17). For experiments involving stable clones, cells were cultured in medium supplemented with 0.4-0.5 mg/mL G418, and G418 was removed from cell culture medium one day prior to cell treatments, which were performed as described in Results. For the in vitro infectivity assays, 2 ml of the extracellular medium from JFH1 RNA-transfected cells was used to inoculate naive Huh7 or Huh7.5 cells with 3 ml of fresh medium, as described (23, 25). Treatments were initiated 24 hours after infection and the cells were harvested after another 24 or 48 hrs.
(§3) Intracellular RNA extraction and northern blots were carried out, as described (16, 17). DNA probes were prepared from nucleotides (“nt.”) 4128-8273 or 358-2816 of JFH1, generated with ScaI and ApaL I, respectively, or nt. 3669 to 6016 of the Con1 subgenomic replicons. Images were quantified by densitometry, using Optiquant Cyclone 4.00 (Perkin Elmer), and data were normalized by glyceraldehyde 3-phosphate dehydrogenase (GAPDH) mRNA content.

NADH/NAD+ ratio = experiment: NADH/NAD+ enzymatic NADH recycling assay; type: cell-based, human; conditions: for NADH/NAD+ ratio: SgPC2 cells, 0.2% ethanol, 5 μM acetaldehyde, 5 μM acetate, 0.2% isopropyl alcohol, 2 mM acetone, 25 mM tert-butanol; for NADH/NAD+ ratio in ethanol-treated cells: with cyanamide, 4 MP, and DADS, data not shown
[2] = test system: intracellular cholesterol; experiment: Total intracellular cholesterol content in SgPC2 cells; type: cell-based, human; conditions: 24 h
Experimental: FIG. 7. […] SgPC2 cells were treated for 24 h with (A and B) 0.2% ethanol, 5 μM acetaldehyde, 0.2% isopropyl alcohol, 2 mM acetone, 5 μM acetate±30 min pretreatment with (A) 5 μM lovastatin, 5 μM fluvastatin, (B) 5 μg/ml TOFA, 5 μg/ml cerulenin, or with (C) 2 mM β-mercaptopropionic acid (β-MPA). Then, HCV RNA levels were monitored by Northern blot and quantified by densitometry (n=3). D, SgPC2 cells, treated for 24 h with ethanol, acetaldehyde, acetone, and acetate±lovastatin, were monitored for cholesterol levels (n=3). Lovastatin was activated, as described, before use (29). *, indicates statistically significant difference for indicated sample sizes (p<0.05)

JFH1 HCV (genotype 2a) = type: cell-based, hepatitis C virus
JFH1 virus = experiment: HCV RNA in naive Huh7 or Huh7.5 cells inoculated with JFH1 virus-containing medium; type: cell-based, hepatitis C virus
Experimental: as §2
The total intracellular RNA was obtained from cells using Trizol (Invitrogen). To obtain extracellular HCV RNA, cell culture medium samples were first treated with RNase A (100 μg/ml) for 30 min at room temperature, then RNA was extracted using Trizol LS and glycogen as a carrier. HCV RNA was quantified by qRT-PCR as described (17, 23). For JFH1, the primer sequences were 5′ […] 3′ (nt 146 to 164; forward, SEQ ID NO.: 1), and 5′ […] 3′ (nt 277 to 295; reverse, SEQ ID NO.: 2), and the sequence of the fluorogenic probe, labeled with 6-FAM and TAMRA (Biosearch Technologies, Inc.), was 5′ […] 3′ (nt 168 to 188, SEQ ID NO.: 3). The primer and probe sequences for qRT-PCR analysis of Con1 RNA's were described previously (17). Standard curves were generated using in vitro-transcribed HCV RNA's. Intracellular HCV RNA levels were normalized by 18 S rRNA or GAPDH mRNA.

[3] = test system: SgJFH1-Luc subgenomic HCV replicon (genotype 2a); type: cell-based, hepatitis C virus
From the text: as §1
After various treatments, SgJFH1 Luc RNA-transfected cells were lysed with 1× Reporter Lysis Buffer, and the luciferase activity was determined using Luciferase Reporter Assay Kit (Promega Corp.) (24). Luciferase activities were normalized by total protein content, determined with bicinchoninic acid (BCA) assay kit from Pierce.
To test whether the JFH1 RNA replication was also affected by ethanol, Huh7 cells were transfected with JFH1 SgJFH1-Luc RNA and exposed the cells to ethanol for 48 hours. Then, HCV replication was monitored by measuring the firefly luciferase activity (24).

[4] = test system: Con1 HCV subgenomic replicon; experiment: Con1 subgenomic replicon HCV RNA in Clone B cells; type: cell-based, hepatitis C virus; conditions: 24 hrs, response compared with SgPC2 cells
From the text: as §1, §3

HCV = conditions: references 53, 54; cited from earlier work
[5] = test system: Huh7 human hepatoma cells
Experimental: NADH and NAD+ levels were determined by enzymatic NADH recycling assay, using the NAD+/NADH Quantification Kit from Biovision, per manufacturers recommendations with an optional filtration step that used Microcon YM-10 (Millipore). Total ATP content was measured using Somatic Cell ATP Assay Kit from Sigma-Aldrich. The data were normalized by total protein content, determined with BCA assay kit from Pierce.
To examine whether ethanol increased the complete replication of HCV, positive-sense genomic JFH1 RNA was produced by in vitro transcription, using T7 RNA polymerase, and transfected into Huh7 human hepatoma cells. Then, the transfected cells were exposed to 0-1.0% (v/v; 0-172 mM) ethanol once daily with a change of medium each day for 48 hrs. Then, the cells and the cell culture medium were harvested and analyzed for intracellular and RNase A-resistant extracellular HCV RNA's by a combination of Northern blots and qRT-PCR.

[6] = acetaldehyde at physiologically relevant concentrations, 24 hrs
[7] = BSO with 2 mM GSH or GSH ester, 24 hrs
[8] = 0.2% ethanol ± 0.1 mM 4 MP plus 25 μM DADS

Molecule: CC(C)O [isopropyl alcohol]
- HCV RNA level / HCV replication in SgPC2 cells [1]: increased
- NADH/NAD+ ratio (NADH/NAD+ ratio; 3 h): increases

Molecule: CC(O)C(=O)O (centres unmarked) [lactate]
- HCV RNA level / HCV replication in SgPC2 cells [1]: little to no effect
- NADH levels (NADH/NAD+ ratio; 5 mM lactate, 3 h): 235.9±11.9 % of the control level
- total intracellular cholesterol content [2]: no significant effect

Molecule: CC(=O)O [acetate]
- HCV RNA level / HCV replication in SgPC2 cells [1]: increased
- NADH/NAD+ ratio (NADH/NAD+ ratio; 3 h): increases
- total intracellular cholesterol content [2]: increased

Molecule: CC=O [acetaldehyde]
- HCV RNA content in virus-producing JFH1 cells (JFH1 HCV (genotype 2a); [6]): significantly increased
- HCV replication in RIG-1-defective Huh7.5 cells (JFH1 virus; FIG. 5, also data not shown): increase
- HCV replication in naive cells infected with virus-containing medium (JFH1 virus; Huh7.5 cells, acetaldehyde 24 hrs): significant increases
- HCV RNA content in non-virus producing JFH1 cells [3, 6]: significantly increased
- HCV RNA level / HCV replication in SgPC2 cells [1]: elevated
- HCV RNA in Clone B cells [4]: responded similarly
- NADH/NAD+ ratio (NADH/NAD+ ratio; 3 h): increases
- total intracellular cholesterol content [2]: increased

Molecule: O=C(O)CCS [β-mercaptopropionic acid]
- increase in HCV replication ([1]; 2 mM β-mercaptopropionic acid, SgPC2 cells): 15.2±1.7 fold

Molecule: N[C@@H](CCC(=O)N[C@@H](CS)C(=O)NCC(=O)O)C(=O)O [GSH, glutathione]
- restoration of intracellular HCV RNA in BSO-treated cells (JFH1 HCV (genotype 2a); [7]): could not restore

Molecule: N#CN [cyanamide]
- potentiation of HCV replication by ethanol ([1]; 0.2% ethanol ± 0.1 mM cyanamide): suppressed
- NADH/NAD+ ratio in ethanol-treated cells (NADH/NAD+ ratio): decreases

Molecule: CCOC(=O)CNC(=O)[C@H](CS)NC(=O)CC[C@H](N)C(=O)O [GSH ethyl ester]
- restoration of extracellular HCV RNA in BSO-treated cells (JFH1 HCV (genotype 2a); [7]): partially restored
- restoration of intracellular HCV RNA in BSO-treated cells (JFH1 HCV (genotype 2a); [7]): partially restored

Molecule: CCCCCCCCCCCCCCOc1ccc(C(=O)O)o1 [TOFA, 5-(Tetradecyloxy)-2-furoic acid]
- potentiation of HCV RNA replication by ethanol, acetaldehyde, isopropyl alcohol, acetone, and acetate ([1]; SgPC2 cells): almost completely inhibited
- basal level of HCV replication (HCV): suppress

Molecule: CC(C)(C)O [tert-butanol]
- HCV RNA level / HCV replication in SgPC2 cells [1]: did not elevate
- NADH/NAD+ ratio (NADH/NAD+ ratio; 3 h): did not elevate

Molecule: C/C=C/C/C=C/CCC(=O)[C@H]1O[C@H]1C(N)=O [cerulenin]
- potentiation of HCV RNA replication by ethanol, acetaldehyde, isopropyl alcohol, acetone, and acetate ([1]; SgPC2 cells): almost completely inhibited
- basal level of HCV replication (HCV): suppress

Molecule: OO [H2O2, Hydrogen peroxide]
- JFH1 RNA levels (JFH1 HCV (genotype 2a); 25, 50, and 100 μM bolus H2O2, 24 hrs): decreased
- cytotoxicity in JFH1 cells ([5]; 100 μM H2O2): some cytotoxicity
- cytotoxicity in JFH1 cells ([5]; 25 and 50 μM H2O2): clearly within the subtoxic range

Molecule: CC(C)=O [acetone]
- HCV RNA level / HCV replication in SgPC2 cells [1]: increased
- NADH/NAD+ ratio (NADH/NAD+ ratio; 3 h): increases
- total intracellular cholesterol content [2]: increased

Molecule: C=CCSSCC=C [DADS]
- potentiation of HCV replication by ethanol [1, 8]: suppressed
- NADH/NAD+ ratio in ethanol-treated cells (NADH/NAD+ ratio): decreases

Molecule: glucose oxidase [GO]
- decrease of intracellular JFH1 RNA (JFH1 HCV (genotype 2a); 0.25 mU/mL GO + glucose, 24 hrs): 30±8%
- effect on the suppression of HCV RNA by BSO (JFH1 HCV (genotype 2a); GO + glucose after 16 hr pre-treatment with 20 μM BSO, 24 hrs): exacerbated the suppression
- effect on the suppression of subgenomic JFH1 RNA replication by BSO [3]: exacerbated the suppression

Molecule: CC[C@H](C)C(=O)O[C@H]1C[C@@H](C)C=C2C=C[C@H](C)[C@H](CC[C@@H]3C[C@@H](O)CC(=O)O3)[C@H]21 [lovastatin, Lovastatin]
- potentiation of HCV RNA replication by ethanol, acetaldehyde, isopropyl alcohol, acetone, and acetate ([1]; SgPC2 cells): almost completely inhibited
- increase of intracellular cholesterol content by ethanol, acetaldehyde, acetone, and acetate ([2]; ± lovastatin): attenuated
- basal level of HCV replication (HCV): suppress

Molecule: Cc1cn[nH]c1 [4 MP, 4-methylpyrazole]
- potentiation of HCV replication by ethanol [1, 8]: suppressed
- NADH/NAD+ ratio in ethanol-treated cells (NADH/NAD+ ratio): decreases
